What was measured:
3D7 P. falciparum strain = experiment: parasite proliferation assay in infected red blood cells (SYBR Green I); assay type: cell-based, Plasmodium falciparum; details: Plasmodium falciparum, 3D7, Erythrocyte, 3D7 strain; read-out: EC50 3D7 strain
Description: (§1) Compounds of the invention can be assayed to measure their capacity to inhibit proliferation of parasitemia in infected red blood cells. The proliferation is quantified by the addition of SYBR Green I (INVITROGEN)® dye which has a high affinity for double stranded DNA.
The following assay illustrates the invention without in any way limiting the scope of the invention. This parasite proliferation assay measures the increase in parasite DNA content using a DNA intercalating dye, SYBR Green®.
3D7 P. falciparum strain is grown in complete culturing media until parasitemia reaches 3% to 8% with O+ human erythrocytes. 20 μl of screening media is dispensed into 384 well assay plates. […] 10 μl of lysis buffer (saponin, triton-X, EDTA) containing a 10× solution of SYBR Green I® in RPMI media is dispensed into the plates. The plates are lidded and kept at room temperature overnight for the lysis of the infected red blood cells.

W2 strain = experiment: parasite proliferation assay in infected red blood cells (SYBR Green I), W2 strain; assay type: cell-based; details: Erythrocyte
Description: as §1

| Structure (SMILES) | EC50 (3D7 P. falciparum strain) | EC50 (W2 strain; Plasmodium falciparum) | EC50 (W2 strain) |
| --- | --- | --- | --- |
| Cc1cc(Nc2c(-c3cccc(F)c3)nc3n2CC(=O)N(CCCC(=O)O)C3(C)C)ccc1F [Compound 692, 4-(3-(4-fluoro-3-methylphenylamino)-2-(3-fluorophenyl)-8,8-dimethyl-6-oxo-5,6-dihydroimidazo[1,2-a]pyrazin-7(8H)-yl)butanoic acid] | 6450 nM | 5340 nM |  |
| Cc1ccc(Nc2c(-c3ccc(F)cc3)nc3n2CCN(C(=O)CNC2CC2)C3)cc1 [Compound 153] | 60 nM |  | 32 nM |
| CC(C)(C)CC(C)(C)Nc1c(-c2ccccc2C(F)(F)F)nc2ccccn12 [Compound 745] | 3570 nM | 4230 nM |  |
| Cc1ccc(Nc2c(-c3ccc(F)cc3)nc3n2CCN(C(=O)[C@@H](N)C(C)(C)C)C3)cc1 [Compound 170] | 90 nM |  | 54 nM |
| Cc1ccc(Nc2c(-c3ccc(F)cc3F)nc3n2CCN(C(=O)C(C)(C)N)C3)cc1 [Compound 395] | 440 nM |  | 246 nM |
| CC1(C)N=C2c3nc(-c4ccc(F)cc4)c(Nc4ccc(F)c(F)c4)n3CCN2C1=O [Compound 645, 8-(3,4-difluorophenylamino)-9-(4-fluorophenyl)-2,2-dimethyl-5,6-dihydrodiimidazo[1,2-a:2′,1′-c]pyrazin-3 (2H)-one] | 5130 nM | 7600 nM |  |
| Cc1cc(Nc2c(-c3cccc(F)c3)nc3n2C(C)(C)CN(C(=O)CN)C3)ccc1Cl [Compound 626] | 20 nM | 17 nM |  |
| CC(C)(N)C(=O)N1CCn2c(nc(-c3c(F)cc(F)cc3F)c2Nc2ccc(F)cc2)C1 [Compound 12] | 7400 nM |  | 2960 nM |
| CC(C)(C)[C@H](N)C(=O)N1CCn2c(nc(-c3ccc(F)cc3)c2Nc2ccc(Cl)c(F)c2)C1 [Compound 326] | 30 nM |  | 22 nM |
| Cc1ccc(Nc2c(-c3ccc(F)cc3)nc3n2CCN(C(=O)[C@@H](N)Cc2ccc(N)cc2)C3)cc1 [Compound 157] | 100 nM |  | 97 nM |
| CN(C)CC(=O)N1CCn2c(nc(-c3ccc(F)cc3)c2Nc2ccc(F)cc2)C1 [Compound 22] | 1300 nM |  | 691 nM |
| CC(C)(N)C(=O)N1CCn2c(nc(-c3ccc(F)cc3)c2Nc2ccc(C#N)cc2)C1 [Compound 263] | 350 nM |  | 653 nM |
| CC1(C)c2nc(-c3ccc(F)cc3)c([S+]([O-])c3cccc(F)c3)n2CCN1C(=O)CN (stereo not drawn) [Compound 719] | 481 nM | 361 nM |  |
| CN1CCC(N2CCN(c3c(-c4ccc(F)cc4)nc4n3CCN(C(=O)CN)C4(C)C)CC2)CC1 [Compound 673] | 8870 nM | > 8720 nM |  |
| Cc1ccc(Nc2c(-c3ccc(F)cc3)nc3n2CCN(Cc2ccc(-c4ccncc4)cc2)C3)cc1 [Compound 184] | 3650 nM |  | 859 nM |
| Cc1ccc(Nc2c(-c3ccc(F)cc3)nc3n2CCN(C(=O)[C@H](N)c2ccccc2)C3)cc1 [Compound 97] | 40 nM |  | 21 nM |
| NC(C(=O)N1CCn2c(nc(-c3ccc(F)cc3)c2Nc2ccc(Cl)c(F)c2)C1)c1ccc(C(F)(F)F)cc1 (stereo not drawn) [Compound 368] | 520 nM |  | 286 nM |
| CC1(C)c2nc(-c3ccc(F)cc3)c(Nc3ccc(F)cc3)n2CCN1C(=O)CNC(=O)CCNC(=O)CCc1ccccc1 [Compound 728] | 5400 nM | 1480 nM |  |
| Cc1cc(Nc2c(-c3ccc(F)cc3)nc3n2CCN(C(=O)C(C)(C)N)C3)ccc1Cl [Compound 629] | 17 nM | 23 nM |  |
| CC1(C)c2nc(-c3ccc(F)cc3)c(Nc3cccc(OC(F)(F)F)c3)n2CCN1C(=O)CN [Compound 650] | 12 nM | 9 nM |  |
| N#Cc1ccc(Nc2c(-c3ccc(F)cc3)nc3n2CCN(C(=O)CN)C3)cc1 [Compound 264] | 110 nM |  | 154 nM |
| CNCC(=O)N1CCn2c(nc(-c3ccc(F)cc3)c2Nc2ccc(F)cc2)C1 [Example 32, 1-(2-(4-fluorophenyl)-3-(4-fluorophenylamino)-5,6-dihydroimidazo[1,2-a]pyrazin-7(8H)-yl)-2-(methylamino)ethanone] | 210 nM |  | 219 nM |
| COc1ccc(CN2Cc3nc(-c4ccc(F)cc4)c(Nc4ccc(Cl)c(F)c4)n3C(C)(C)C2=O)cc1 [Compound 613] | 6270 nM | 5710 nM |  |
| CC(C)(N)C(=O)N1CCn2c(nc(-c3ccc(F)cc3)c2Nc2cc(F)cc(F)c2)C1 [Compound 66] | 220 nM |  | 244 nM |
| CC(C)CNCC(=O)N1CCn2c(nc(-c3ccc(F)cc3)c2Nc2ccc(F)cc2)C1 [Compound 69] | 80 nM |  | 94 nM |
| C[C@H](N)C(=O)N1CCn2c(nc(-c3ccc(F)cc3)c2Nc2ccc(Cl)c(F)c2)C1 [Compound 314] | 30 nM |  | 20 nM |
| CC(C)(C)OC(=O)N[C@@H](Cc1ccc(N)cc1)C(=O)N1CCn2c(nc(-c3cccc(F)c3)c2Nc2ccc(F)cc2)C1 [Compound 243] | 2970 nM |  | 697 nM |

| Structure (SMILES) | EC50 (3D7 P. falciparum strain) | EC50 (W2 strain; Plasmodium falciparum) | EC50 (W2 strain) |
| --- | --- | --- | --- |
| CC1(C)c2nc(-c3ccc(F)cc3)c(NC3CCCC3)n2CCN1C(=O)CN [Compound 670] | 402 nM | 711 nM |  |
| CN(C)CCN1C(=O)Cn2c(nc(-c3ccc(F)cc3)c2Nc2ccc(Cl)c(F)c2)C1(C)C [Compound 685] | 173 nM | 131 nM |  |
| CCCCC(=O)Nc1ccc(C[C@H](N)C(=O)N2CCn3c(nc(-c4cccc(F)c4)c3Nc3ccc(F)cc3)C2)cc1 [Compound 260] | 7640 nM |  | 5010 nM |
| CCCNC(=O)C[C@H](NC(=O)OC(C)(C)C)C(=O)N1CCn2c(nc(-c3ccc(F)cc3)c2Nc2ccc(C)cc2)C1 [Compound 186] | 5630 nM |  | 2560 nM |
| Cc1ccc(Nc2c(-c3ccc(F)cc3)nc3n2CCN(C(=O)C(c2ccccc2)C(C)C)C3)cc1 (stereo not drawn) [Compound 231] | 90 nM |  | 70 nM |
| Cc1ccc(Nc2c(-c3ccc(F)cc3)nc3n2CCN(C(=O)CC(C)(C)O)C3)cc1 [Compound 100] | 150 nM |  | 143 nM |
| O=C(CN1CCOCC1)N1CCn2c(nc(-c3ccc(F)cc3)c2Nc2ccc(F)cc2)C1 [Compound 41] | 2650 nM |  | 1790 nM |
| CC1(C)CN(C(=O)CN)Cc2nc(-c3cccc(F)c3)c(Nc3ccc(F)c(F)c3)n21 [Compound 622] | 100 nM | 121 nM |  |
| COC(=O)c1ccc(Nc2c(-c3ccccc3)nc3n2CCN(C(=O)C(C)(C)N)C3)cc1 [Compound 9] | 13800 nM |  | 3990 nM |
| Cc1cc(Nc2c(-c3ccc(F)cc3)nc3n2C(C)(C)CN(C)C3)ccc1Cl [Compound 610] | 6250 nM | 4900 nM |  |
| Cc1cc(Nc2c(-c3ccc(F)cc3)nc3n2CCN(C(=O)CN)C3(C)C)nn1C [Compound 600] | 70 nM | 50 nM |  |
| CCC(C)CNc1c(-c2ccc(F)cc2)nc2n1CCN(C(=O)CN)C2(C)C (stereo not drawn) [Compound 674] | 6280 nM | 6310 nM |  |
| CCCCCNc1ccc(C[C@H](NC(=O)OC(C)(C)C)C(=O)N2CCn3c(nc(-c4ccc(F)cc4)c3Nc3ccc(C)cc3)C2)cc1 [Compound 267, (S)-tert-butyl 1-(2-(4-fluorophenyl)-3-(p-tolylamino)-5,6-dihydroimidazo[1,2-a]pyrazin-7 (8H)-yl)-1-oxo-3-(4-(pentylamino)phenyl)propan-2-ylcarbamate] | 990 nM |  | 474 nM |
| COc1ccc(NC(C)(C)C(=O)N2CCn3c(nc(-c4ccc(F)cc4)c3Nc3ccc(C)cc3)C2)cc1 [Compound 364] | 4950 nM |  | 3740 nM |
| CC1(C)c2nc(-c3ccc(F)cc3)c(Cc3ccc(F)cc3)n2CCN1C(=O)CN [Compound 693] | 8 nM | 8 nM |  |
| NCC(=O)N1CCn2c(nc(-c3ccc(Cl)cc3)c2Nc2ccc(F)cc2)C1 [Compound 55] | 660 nM |  | 437 nM |
| CC1(C)NC(=O)Cn2c1nc(-c1cccc(F)c1)c2Nc1ccc(Cl)c(F)c1 [Compound 605] | 40 nM | 57 nM |  |
| CCC(=O)Nc1ccc(C[C@H](N)C(=O)N2CCn3c(nc(-c4cccc(F)c4)c3Nc3ccc(Cl)c(F)c3)C2)cc1 [Compound 259] | 5320 nM |  | 3020 nM |
| Cc1ccc(Nc2c(-c3ccc(F)cc3)nc3n2CCN(C(=O)[C@@H](O)c2ccccc2)C3)cc1 [Compound 138] | 10 nM |  | 15 nM |
| CCCNC(=O)C[C@H](N)C(=O)N1CCn2c(nc(-c3ccc(F)cc3)c2Nc2ccc(C)cc2)C1 [Compound 189] | 370 nM |  | 392 nM |
| Cc1ccc(Nc2c(-c3ccc(F)cc3)nc3n2CCN(C(=O)[C@H](CC(=O)OCc2ccccc2)NC(=O)OC(C)(C)C)C3)cc1 [Compound 151] | 820 nM |  | 386 nM |
| CC(C)(O)CC(=O)N1CCn2c(nc(-c3cccc(F)c3)c2Nc2ccc(F)cc2)C1 [Compound 235] | 540 nM |  | 496 nM |
| Cc1ccc(Nc2c(-c3ccc(F)cc3)nc3n2CCN(C(=O)C(C)(C)Nc2ccccc2)C3)cc1 [Compound 374] | 590 nM |  | 248 nM |
| CCCCCNC(=O)C[C@H](N)C(=O)N1CCn2c(nc(-c3cccc(F)c3)c2Nc2ccc(F)cc2)C1 [Compound 257] | 6680 nM |  | 7000 nM |
| COCCN[C@@H](Cc1ccccc1)C(=O)N1CCn2c(nc(-c3ccc(F)cc3)c2Nc2ccc(Cl)c(F)c2)C1 [Compound 282] | 120 nM |  | 117 nM |
| Cc1ccc(Nc2c(-c3ccc(F)cc3)nc3n2CCN(C(=O)[C@H]2CCCO2)C3)cc1 [Compound 199] | 240 nM |  | 157 nM |
| Cc1ccc(Nc2c(-c3ccc(F)cc3)nc3n2CCN(C(=O)[C@@H]2Cc4[nH]cnc4CN2)C3)cc1 [Compound 176] | 2750 nM |  | 1790 nM |

Source: patent US9469645B2, “Compounds and compositions for the treatment of parasitic diseases” (Novartis AG, priority 2009, dated 2016)
